Measured values taken from US8192962B2, “Processes for detecting toxic substances” (Daikin Industries, Ltd., priority 2001, dated 2012).

Test system: Transport facilitation protein genes
Assay: DNA chip mRNA expression in yeast, transport facilitation protein genes (Table 5)
Type: cell-based, Saccharomyces cerevisiae S288C
In short: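 Measured as treated-to-untreated fluorescence ratio on a full-genome yeast DNA chip. Cells (S288C, YPD, 25° C.) were exposed in log phase for two hours to one chemical, dosed to curb growth without killing.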

Measured: The level of expressed mRNA in the presence of chemical substance/The level of expressed mRNA in the absence of chemical substance

Cl[C@H]1[C@H](Cl)[C@@H](Cl)[C@@H](Cl)[C@H](Cl)[C@H]1Cl [(7), γ-hexachlorocyclohexane]
2.4: yeast gene YGR065C
1.5: yeast gene YCL038C | yeast gene YKL016C | yeast gene YNR072W
0.5: yeast gene YDR497C | yeast gene YHR092C
0.7: yeast gene YCL025C | yeast gene YDR038C | yeast gene YDR343C | yeast gene YEL063C | yeast gene YGR138C | yeast gene YGR191W | yeast gene YIL022W | yeast gene YJL212C | yeast gene YJR077C | yeast gene YLR081W | yeast gene YLR378C | yeast gene YPR194C
1.1: yeast gene YBR132C | yeast gene YBR294W | yeast gene YDR345C | yeast gene YFL054C | yeast gene YLR295C
2.2: yeast gene YOL119C
0.8: yeast gene YCR024C-A | yeast gene YDL210W | yeast gene YDR039C | yeast gene YDR342C | yeast gene YEL027W | yeast gene YFL011W | yeast gene YFL050C | yeast gene YHR094C | yeast gene YIL006W | yeast gene YMR011W | yeast gene YMR162C | yeast gene YMR203W | yeast gene YOR348C
1.2: yeast gene YCR098C | yeast gene YDL245C | yeast gene YGL104C | yeast gene YGL167C | yeast gene YNL055C | yeast gene YPL134C | yeast gene YPL271W
3.8: yeast gene YNL259C
0.3: yeast gene YPL036W
2.6: yeast gene YOR153W
1.6: yeast gene YBR295W | yeast gene YHR175W
1.3: yeast gene YDR387C | yeast gene YGL006W | yeast gene YGR197C | yeast gene YJL034W | yeast gene YOR035C | yeast gene YOR130C
4.3: yeast gene YBR207W | yeast gene YEL065W
3.4: yeast gene YFL041W
3.0: yeast gene YBR052C
1.7: yeast gene YBR298C | yeast gene YDR270W | yeast gene YHL035C | yeast gene YIL088C
0.6: yeast gene YGR055W | yeast gene YIL056W
1.0: yeast gene YCR037C | yeast gene YDL198C | yeast gene YDR298C | yeast gene YGL255W | yeast gene YJR106W | yeast gene YJR121W | yeast gene YKR039W | yeast gene YLL028W | yeast gene YOL156W | yeast gene YOR270C
16.8: yeast gene YHL047C
2.8: yeast gene YER053C
0.9: yeast gene YBL030C | yeast gene YBL099W | yeast gene YBR127C | yeast gene YBR293W | yeast gene YDL128W | yeast gene YGR082W | yeast gene YGR096W | yeast gene YGR260W | yeast gene YGR281W | yeast gene YHR026W | yeast gene YJL219W | yeast gene YKL146W | yeast gene YLR348C | yeast gene YOL163W | yeast gene YOR332W | yeast gene YPR192W
2.0: yeast gene YDR086C | yeast gene YKR067W
0.4: yeast gene YGR224W | yeast gene YOR273C
1.4: yeast gene YGL008C | yeast gene YOR316C
4.0: yeast gene YHL040C
